Measurements published in ChEMBL document CHEMBL3259629, “Discovery and optimization of piperidyl-1,2,3-triazole ureas as potent, selective, and in vivo-active inhibitors of α/β-hydrolase domain containing 6 (ABHD6)” (J Med Chem, 2013).

Legend:
Conditions in all cases: Neuro2a, 3 nM
[1] = molecular target: T1, Neutral cholesterol ester hydrolase 1 (Mus musculus) (UniProt Q8BLF1)
T1 sequence (whole entry): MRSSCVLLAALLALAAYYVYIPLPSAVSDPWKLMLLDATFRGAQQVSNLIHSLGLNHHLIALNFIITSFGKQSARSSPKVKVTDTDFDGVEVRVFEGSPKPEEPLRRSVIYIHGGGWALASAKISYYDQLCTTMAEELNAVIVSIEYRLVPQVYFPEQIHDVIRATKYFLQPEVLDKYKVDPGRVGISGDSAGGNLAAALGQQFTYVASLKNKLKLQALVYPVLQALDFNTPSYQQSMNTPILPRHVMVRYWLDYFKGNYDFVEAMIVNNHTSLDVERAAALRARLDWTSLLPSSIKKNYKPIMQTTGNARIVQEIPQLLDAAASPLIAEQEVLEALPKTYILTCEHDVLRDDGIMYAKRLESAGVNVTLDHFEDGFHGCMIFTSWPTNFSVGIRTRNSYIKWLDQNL
Description: Inhibition of Aadacl1 in mouse Neuro2a cells at 3 nM after 4 hrs by ABPP-SILAC assay

[2] = molecular target: T2, Retinoid-inducible serine carboxypeptidase (Mus musculus) (UniProt Q920A5)
T2 sequence (whole entry): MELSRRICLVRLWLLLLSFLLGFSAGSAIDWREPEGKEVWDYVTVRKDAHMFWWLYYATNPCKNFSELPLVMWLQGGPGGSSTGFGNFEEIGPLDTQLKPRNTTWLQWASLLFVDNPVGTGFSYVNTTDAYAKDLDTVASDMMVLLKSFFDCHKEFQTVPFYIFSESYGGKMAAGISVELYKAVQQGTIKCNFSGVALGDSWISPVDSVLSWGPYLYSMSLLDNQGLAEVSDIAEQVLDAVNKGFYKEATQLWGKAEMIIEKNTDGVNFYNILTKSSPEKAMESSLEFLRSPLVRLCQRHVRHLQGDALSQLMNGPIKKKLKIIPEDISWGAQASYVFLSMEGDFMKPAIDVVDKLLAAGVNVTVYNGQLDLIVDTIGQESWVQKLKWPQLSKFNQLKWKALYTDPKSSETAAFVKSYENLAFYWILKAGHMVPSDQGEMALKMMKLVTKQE
Description: Inhibition of Scpep1 in mouse Neuro2a cells at 3 nM after 4 hrs by ABPP-SILAC assay

[3] = molecular target: T3, Phosphatidylserine lipase ABHD16A (Mus musculus) (UniProt Q9Z1Q2)
T3 sequence (whole entry): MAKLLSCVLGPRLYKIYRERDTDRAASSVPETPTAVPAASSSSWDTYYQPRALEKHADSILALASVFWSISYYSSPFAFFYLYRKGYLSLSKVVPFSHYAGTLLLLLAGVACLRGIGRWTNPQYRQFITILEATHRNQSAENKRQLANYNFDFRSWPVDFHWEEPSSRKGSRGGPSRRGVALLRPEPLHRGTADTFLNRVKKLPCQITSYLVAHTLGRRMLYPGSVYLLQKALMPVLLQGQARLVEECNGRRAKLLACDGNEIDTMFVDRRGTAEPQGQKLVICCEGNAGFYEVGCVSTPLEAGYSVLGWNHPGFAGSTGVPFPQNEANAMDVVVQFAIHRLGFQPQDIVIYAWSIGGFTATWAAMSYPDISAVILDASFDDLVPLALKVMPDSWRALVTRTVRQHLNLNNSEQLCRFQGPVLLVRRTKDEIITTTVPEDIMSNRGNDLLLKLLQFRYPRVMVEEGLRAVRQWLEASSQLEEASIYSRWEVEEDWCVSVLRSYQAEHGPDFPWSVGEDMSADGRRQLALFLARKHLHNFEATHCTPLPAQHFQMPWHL
Description: Inhibition of Bat5 in mouse Neuro2a cells at 3 nM after 4 hrs by ABPP-SILAC assay

[4] = molecular target: T4, GPI inositol-deacylase (Mus musculus) (UniProt Q3UUQ7)
T4 sequence (whole entry): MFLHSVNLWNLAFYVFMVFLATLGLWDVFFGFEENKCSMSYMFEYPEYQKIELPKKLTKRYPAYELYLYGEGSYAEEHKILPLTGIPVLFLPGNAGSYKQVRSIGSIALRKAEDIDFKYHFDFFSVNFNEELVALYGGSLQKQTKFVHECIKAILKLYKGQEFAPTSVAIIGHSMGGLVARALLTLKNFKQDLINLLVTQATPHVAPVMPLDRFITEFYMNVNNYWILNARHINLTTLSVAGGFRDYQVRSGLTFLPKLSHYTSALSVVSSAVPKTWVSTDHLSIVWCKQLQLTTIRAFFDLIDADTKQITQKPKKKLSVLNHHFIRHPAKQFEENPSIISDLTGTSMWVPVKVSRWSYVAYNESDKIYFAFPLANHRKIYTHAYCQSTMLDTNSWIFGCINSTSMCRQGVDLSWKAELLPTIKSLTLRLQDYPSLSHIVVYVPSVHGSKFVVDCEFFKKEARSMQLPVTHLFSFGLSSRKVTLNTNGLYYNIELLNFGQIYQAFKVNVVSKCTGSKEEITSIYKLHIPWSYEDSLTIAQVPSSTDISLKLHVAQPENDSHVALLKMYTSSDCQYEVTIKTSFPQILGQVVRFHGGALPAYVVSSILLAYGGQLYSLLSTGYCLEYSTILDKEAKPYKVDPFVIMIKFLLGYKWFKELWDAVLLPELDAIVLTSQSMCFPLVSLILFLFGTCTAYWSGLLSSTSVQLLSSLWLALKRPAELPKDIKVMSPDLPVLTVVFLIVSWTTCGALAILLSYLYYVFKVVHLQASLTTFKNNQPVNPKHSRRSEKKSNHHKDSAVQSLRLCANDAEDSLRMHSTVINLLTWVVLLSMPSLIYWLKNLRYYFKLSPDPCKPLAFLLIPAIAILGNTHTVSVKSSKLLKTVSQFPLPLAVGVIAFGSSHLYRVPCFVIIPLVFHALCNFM
Description: Inhibition of Pgap1 in mouse Neuro2a cells at 3 nM after 4 hrs by ABPP-SILAC assay

[5] = molecular target: Serine hydrolase RBBP9 (Mus musculus) (UniProt O88851)
Description: Inhibition of Rbbp9 in mouse Neuro2a cells at 3 nM after 4 hrs by ABPP-SILAC assay

[6] = molecular target: Dipeptidyl peptidase 9 (Mus musculus) (UniProt Q8BVG4)
Description: Inhibition of DPP9 in mouse Neuro2a cells at 3 nM after 4 hrs by ABPP-SILAC assay

[7] = molecular target: T5, Acyl-coenzyme A thioesterase 1 (Mus musculus) (UniProt O55137)
T5 sequence (whole entry): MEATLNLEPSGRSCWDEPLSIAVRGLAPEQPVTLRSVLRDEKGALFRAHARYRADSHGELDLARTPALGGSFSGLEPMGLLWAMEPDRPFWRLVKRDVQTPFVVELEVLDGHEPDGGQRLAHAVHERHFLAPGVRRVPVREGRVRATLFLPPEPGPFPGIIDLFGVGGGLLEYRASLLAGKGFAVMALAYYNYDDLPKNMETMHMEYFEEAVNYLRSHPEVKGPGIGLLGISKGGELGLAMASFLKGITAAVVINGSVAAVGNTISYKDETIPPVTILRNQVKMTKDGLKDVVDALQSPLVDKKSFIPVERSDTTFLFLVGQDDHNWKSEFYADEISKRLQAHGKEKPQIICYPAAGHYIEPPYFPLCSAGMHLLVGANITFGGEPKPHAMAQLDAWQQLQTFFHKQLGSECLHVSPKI
Description: Inhibition of Acot1 in mouse Neuro2a cells at 3 nM after 4 hrs by ABPP-SILAC assay

Measured: inhibition

Chain of Dipeptidyl peptidase 9 (Mus musculus) (Q8BVG4 whole entry): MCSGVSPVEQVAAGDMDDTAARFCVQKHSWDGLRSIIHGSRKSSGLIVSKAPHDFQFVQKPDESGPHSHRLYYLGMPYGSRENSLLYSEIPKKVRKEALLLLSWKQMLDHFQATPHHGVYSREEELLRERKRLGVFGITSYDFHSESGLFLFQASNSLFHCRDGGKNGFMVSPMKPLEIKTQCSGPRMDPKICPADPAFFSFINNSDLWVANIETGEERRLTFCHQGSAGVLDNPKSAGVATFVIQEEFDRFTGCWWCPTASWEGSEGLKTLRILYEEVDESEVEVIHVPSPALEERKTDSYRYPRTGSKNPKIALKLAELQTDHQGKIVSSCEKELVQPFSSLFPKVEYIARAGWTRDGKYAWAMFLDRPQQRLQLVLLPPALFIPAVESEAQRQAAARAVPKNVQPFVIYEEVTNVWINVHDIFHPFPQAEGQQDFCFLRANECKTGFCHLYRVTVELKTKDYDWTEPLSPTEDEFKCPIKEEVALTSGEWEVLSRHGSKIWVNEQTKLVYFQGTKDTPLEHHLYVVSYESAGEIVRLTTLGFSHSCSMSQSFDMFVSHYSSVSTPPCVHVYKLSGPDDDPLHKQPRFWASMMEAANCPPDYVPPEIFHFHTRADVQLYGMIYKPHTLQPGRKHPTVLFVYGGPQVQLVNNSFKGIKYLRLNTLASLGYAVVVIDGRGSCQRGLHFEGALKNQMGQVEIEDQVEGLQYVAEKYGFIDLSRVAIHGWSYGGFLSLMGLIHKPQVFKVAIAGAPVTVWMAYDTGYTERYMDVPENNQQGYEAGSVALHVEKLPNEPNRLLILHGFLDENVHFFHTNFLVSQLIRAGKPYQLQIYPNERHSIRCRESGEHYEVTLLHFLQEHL
Chain of Serine hydrolase RBBP9 (Mus musculus) (O88851 whole entry): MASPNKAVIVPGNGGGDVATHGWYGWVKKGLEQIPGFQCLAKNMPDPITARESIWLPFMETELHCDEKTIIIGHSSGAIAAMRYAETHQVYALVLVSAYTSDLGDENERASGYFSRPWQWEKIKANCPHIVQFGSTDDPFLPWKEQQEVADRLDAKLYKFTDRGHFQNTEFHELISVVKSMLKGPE

O=C(O)c1cccc(-c2ccc(-c3cn(C(=O)N4CCCCC4Cc4ccccc4)nn3)cc2)c1 (racemic)
< 50%: [1] | [2] | [3] | [4] | [5] | [6] | [7]

O=C(N1CCCCC1c1ccccc1)n1cc(-c2ccc(-c3cccc(CO)c3)cc2)nn1 (racemic)
< 50%: [1] | [2] | [3] | [4] | [5] | [6] | [7]

O=C(c1cccc(-c2ccc(-c3cn(C(=O)N4CCCCC4c4ccccc4)nn3)cc2)c1)N1CCCCC1 (racemic)
< 50%: [1] | [2] | [3] | [4] | [5] | [6] | [7]
